In US20200383970A1, “Morphinan Derivatives with High Oral Bioavailability” (Alkermes Pharma Ireland Limited, priority 2009, published 2020):
Where two headings read alike, the source gives them in different places.

How the values were obtained:
[1] = Pharmacokinetic analysis following PO administration in dog; assay type: in vivo
Method: Example 2: Pharmacokinetic analysis of Compound 1: The PK of Compound 1 and the reference compound Naltrexone was determined following IV (1 mg/kg) and PO (10 mg/kg or 1 mg/kg) administration. Concentrations of Compound 1 and naltrexone were determined by LC-MS/MS. The PK parameters were determined by noncompartmental analysis using WiNonlin (v5.1). FIGS. 2-4 show the PK profiles of naltrexone and Compound 1.

[2] = Pharmacokinetic analysis following PO administration in rat
[3] = Pharmacokinetic analysis following PO administration in monkey
[4] = dog, oral dose 1 (mg); Reuning et at. J Pharm Sci. 1979; cited from earlier work

SMILES | AUC(0-inf) ([1]; dog, in vivo, po, 1 mg/kg) [ng·h/mL] | half-life ([1]; dog, in vivo, po, 1 mg/kg) [h] | improvement in oral bioavailability in comparison with naltrexone ([1]; dogs, oral administration) | Cmax ([1]; in vivo, 1 mg/kg, dog, oral dose 1 (mg)) [ng/mL] | bioavailability ([1]; in vivo, 1 mg/kg, dog, oral dose 1 (mg), read-out: Bioavailability (F %)) [%] | AUC(0-inf) ([2]; rat, in vivo, po, 10 mg/kg) [ng·h/mL] | Cmax ([2]; rat, in vivo, po, 10 mg/kg) [ng/mL] | bioavailability ([2]; rat, in vivo, po, 10 mg/kg) [%] | half-life ([2]; rat, in vivo, po, 10 mg/kg) [h] | improvement in oral bioavailability in comparison with naltrexone ([2]; rats, oral administration) [fold] | AUC(0-inf) ([3]; monkey, in vivo, po, 10 mg/kg) [ng·h/mL] | Cmax ([3]; monkey, in vivo, po, 10 mg/kg) [ng/mL] | bioavailability ([3]; monkey, in vivo, po, 10 mg/kg) [%] | half-life ([3]; monkey, in vivo, po, 10 mg/kg) [h] | improvement in oral bioavailability in comparison with naltrexone ([3]; monkeys, oral administration) | AUC∞ [4] [ng·h/mL] | Bioavailability (F %) [4] [%] | Cmax [4] [ng/mL]
NC(=O)c1ccc2c(c1O)[C@]13CCN(CC4CC4)[C@H](C2)[C@]1(O)CCC(=O)C3 [Compound 1] | 491 | 3.2 | over 50 fold | 104 | 66 | 1320 | 929 | 15 | 1.2 | 4 | 4470 | 627 | 68 | 5.4 | over 4 fold |  |  | 
O=C1CC[C@@]2(O)[C@H]3Cc4ccc(O)c5c4[C@@]2(CCN3CC2CC2)[C@H]1O5 [Naltrexone, reference compound] |  |  |  |  |  | 150 | 61.6 | 3 |  |  | 54 | 13 | 13 |  |  | 4.2 | 1.1 | 2.7
